Source: patent EP2082991A1, “Method of Water Treatment” (Thermphos Trading GmbH, priority 2008, dated 2009)
Where two headings read alike, the source gives them in different places.

Experiments:
[1] = minimum phosphonate concentration for 100% calcium carbonate scale inhibition; 22 hours at 50°C, pH 9
Experimental: Testing method for calcium carbonate scale inhibition.
This is a static test to evaluate the efficiency of phosphonates in preventing calcium carbonate scale inhibition in industrial water treatment conditions. The test is carried out by determining the amount of CaCO3 that has precipitated after 22 hours at 50°C in a 50/50 mixture of cationic and anionic waters with the test phosphonates at 5 different concentrations. The amount of soluble Ca ions is analyzed by titration. Result indicates the % Ca scale inhibition provided by the 5 phosphonate concentrations. Reported results give the minimum phosphonate concentration for 100% calcium carbonate scale inhibition.
• Cationic and anionic waters are prepared at pH 9.

[2] = minimum concentration for full scale inhibition; 22 hours at 90 °C, pH 6; tested at 15, 30, 50, 70 and 100 ppm
Experimental: Barium sulphate scale inhibition.
This is a static test to evaluate the efficiency of phosphonates in preventing barium and strontium scale inhibition in oil field scaling conditions. The test is carried out by determining the amount of BaSO4 and SrSO4 that has precipitated after 22 hours at 90 °C in a 50/50 mixture of synthetic North Sea water and Formation water containing the phosphonates to be tested at 5 different concentrations. The amount of soluble Ba and Sr ions is determined by ICP. The results stand for the minimum phosphonate concentration for 100 % barium sulphate scale inhibition or give the scale inhibition at 100 ppm loading of phosphonate.
Test details are as follows:
Synthetic North Sea water:
• synthetic North Sea and Formation water are prepared having a pH of 6. These water solutions are preheated at 90 °C before starting the test. […] Then add to this glass bottle 50 ml of Formation water; • also prepare one blank solution by mixing 50 ml of North Sea water with 50 ml of Formation water; • put the sample bottles in an oven for 22 hours at 90 °C; • after 22 hours, take 3 ml of each test solution from the surface, filter through a 0.45 µm Millipore filter and add to a stabilizing solution.

[3] = 1 % active acid phosphonate in synthetic North Sea water, pH 5.5, 140 °C, one week
Experimental: Thermal stability assessment.
This is a test to assess the thermal stability of phosphonates in the presence of synthetic North Sea water. The test is carried out by submitting mixtures of North Sea water and phosphonates stabilized at pH 5.5 to a one week heating at 140 °C. The thermal degradation is determined by ^31P NMR analysis.

[4] = 22 hours at 90 °C, pH 5.5
Experimental: Brine/sea water compatibility.
This test assesses sea water compatibility of the phosphonates added at: 100; 1000; 10000; and 50000 ppm to North Sea water after 22 hours at 90 °C. Calcium left in solution is measured by ICP.
Test details are as follows: • prepare synthetic North Sea water at pH 5.5; • add the phosphonate at 100, 1000, 10000 and 50000 ppm active acid to the synthetic North Sea water solution; • prepare 5 blank solutions made by mixing the required amount of distilled water with North Sea water to obtain the same dilution as obtained by the addition of […], 1000, 10000 and 50000 ppm active acid phosphonate to the synthetic North Sea water solution; • the phosphonate samples with the respective phosphonates at the 4 concentrations as well as the 5 blanks are stored in an oven at 90 °C for a period of 22-24 hours; • upon completion of the test, the samples are observed visually; • after completion of the test, the pH values are being carefully monitored and 50 ml are drawn from each sample, filtered through a […] Millipore filter and stabilized at pH<2 by addition of 37 % aqueous hydrochloric acid; • Ca tolerance values are calculated as follows: % Ca tolerance = (Vi)/(V0) × 100 [formula] • where V0 = ppm Ca found in the blank solution; and • V1 = ppm Ca found in the solution with the phosphonate.

[5] = Peroxide stabilization procedure (perborate/TAED with iron, 40°C, thiosulphate titration); settings: 35 ppm phosphonate
Experimental: Peroxide stabilization procedure
In a 250 ml glass bottle filled with 200ml deionised water stabilized at 40°C add the following ingredients: […], 35ppm of the tested bleach stabilizer, 0.53g of sodium bicarbonate, 0.42g of sodium carbonate, 0.14g of sodium perborate tetrahydrate and 0.06g of tetra-acetyl ethylene diamine (TAED). Dissolve these ingredients in the water by using an ultrasonic bath. After one minute of such treatment the bottle is transferred to the water bath set at 40°C and samples (10 ml each) are taken from the test bottle 2, 6,10,15,20 and 30 minutes thereafter. To these samples are added 10ml of 1M potassium iodide and 10ml of 20% aqueous sulphuric acid before immediate titration with a standardized 0.01N thiosulphate solution.

[6] = 100 ppm phosphonate in North Sea water
[7] = 1000 ppm phosphonate in North Sea water
[8] = 10000 ppm phosphonate in North Sea water
[9] = 50000 ppm phosphonate in North Sea water

Row | SMILES | Ca Scale Inhibition [1] [ppm full scale] | Ba Scale Inhibition: ppm phosphonate needed for 100% BaSO4 scale inhibition [2] [ppm full scale] | Thermal Stability at 140°C 1 week Decomposition in % [3] [%] | Ca Tolerance in % [4, 6] [%] | Ca Tolerance in % [4, 7] [%] | Ca Tolerance in % [4, 8] [%] | Ca Tolerance in % [4, 9] [%] | % remaining act.oxygen ([5]; 0 min) [%] | % remaining act.oxygen ([5]; 2 min) [%] | % remaining act.oxygen ([5]; 6 min) [%] | % remaining act.oxygen ([5]; 10 min) [%] | % remaining act.oxygen ([5]; 15 min) [%] | % remaining act.oxygen ([5]; 20 min) [%] | % remaining act.oxygen ([5]; 30 min) [%]
1 | O=P(O)(O)CN(CCN(CP(=O)(O)O)CP(=O)(O)O)CCN(CP(=O)(O)O)CP(=O)(O)O [Dequest 2066A, diethylene triaminopentamethylene phosphonate] | 2 | 15 | 24 | 100 | 89 | 24 | 100 |  |  |  |  |  |  | 
2 | O=P([O-])(O)CN(CCN(CCN(CP(=O)(O)O)CP(=O)(O)O)CP(=O)(O)O)CP(=O)(O)O.[Na+] [Dequest 2066] |  |  |  |  |  |  |  | 100 | 100 | 99 | 97 | 95 | 94 | 90
3 | O=P(O)(O)CN(CCCCC(CCCN(CP(=O)(O)O)CP(=O)(O)O)CN(CP(=O)(O)O)CP(=O)(O)O)CP(=O)(O)O (centres unmarked) [AMODHMPA, 4-Aminomethyl 1,8-octane diamine hexa (methylene phosphonic acid)] |  | 30 | 8.8 | 99 | 83 | 21 | 100 |  |  |  |  |  |  | 
4 | O=P(O)(O)CN(CCO)CP(=O)(O)O [HEIBMPA, 2-Hydroxy ethyl imino bis (methylene phosphonic acid)] |  | 30 | 19 | 100 | 79 | 100 | 100 |  |  |  |  |  |  | 
